US20160002204A1 (Board of Regents, The University of Texas System, priority 2014, published 2016)

What was measured:
[1] = biological target: T1, GLS1 (purified recombinant human GAC) (Homo sapiens, UniProt O94925); assay: GLS1 enzymatic activity assay (dual-coupled, Amplex UltraRed/resorufin); assay type: biochemical
T1 sequence (O94925 55-598 isoform O94925-3 limits assumed): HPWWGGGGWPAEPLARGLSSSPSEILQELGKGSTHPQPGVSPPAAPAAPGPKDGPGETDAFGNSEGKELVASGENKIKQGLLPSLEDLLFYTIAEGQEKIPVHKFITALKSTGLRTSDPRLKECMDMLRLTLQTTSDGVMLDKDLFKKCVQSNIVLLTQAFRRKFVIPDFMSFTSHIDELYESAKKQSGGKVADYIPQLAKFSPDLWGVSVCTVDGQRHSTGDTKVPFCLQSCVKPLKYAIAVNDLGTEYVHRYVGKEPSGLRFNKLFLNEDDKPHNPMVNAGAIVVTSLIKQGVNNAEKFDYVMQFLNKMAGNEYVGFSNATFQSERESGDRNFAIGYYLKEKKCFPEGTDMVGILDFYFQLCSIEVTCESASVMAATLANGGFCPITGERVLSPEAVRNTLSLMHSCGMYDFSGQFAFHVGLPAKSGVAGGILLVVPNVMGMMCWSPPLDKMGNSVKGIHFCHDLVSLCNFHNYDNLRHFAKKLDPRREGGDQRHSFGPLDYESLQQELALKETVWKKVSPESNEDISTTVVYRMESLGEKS
Outline: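 In this coupled fluorometric format, phosphate-activated GAC (2 nM, 50 mM phosphate) is pre-exposed to compound for 10 min before 1 mM glutamine addition. Product is tracked as resorufin (530/590 nm) over time or at 20 min, and potency is derived by logistic fitting.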

[2] = test system: A549 cells; assay: A549 proliferation (viability) assay, Cell Titer Fluor, 72 hours; assay type: cell-based; settings: Homo sapiens
Outline: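 Seed A549 at 1000 cells/well and culture 24 h. Add compound (final DMSO 0.5%) and incubate 72 h at 37 °C. Add Cell Titer Fluor, mix 15 min, incubate 30 min, read fluorescence and fit EC50 by four-parameter logistic.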

Structure (SMILES)	IC50 [1]	EC50 [2]
C[C@H]1CCN(C(=O)C(=O)Nc2ccn(CCC(F)Cn3cc(C(=O)NCc4cc(OC(F)(F)F)ccc4F)nn3)c(=O)c2F)C1 (stereo partly drawn) [Example 432, 1-[2-fluoro-4-(3-fluoro-4-{2-[(3S)-3-methylpyrrolidin-1-yl]-2-oxoacetamido}-2-oxo-1,2-dihydropyridin-1-yl)butyl]-N-{[2-fluoro-5-(trifluoromethoxy)phenyl]methyl}-1H-1,2,3-triazole-4-carboxamide]	< 100 nM	< 100 nM
COC1CCCN(C(=O)C(=O)Nc2ccn(CCC(F)Cn3cc(C(=O)NCc4cc(OC(F)(F)F)ccc4F)nn3)c(=O)c2F)C1 (centres unmarked) [Example 433, 1-(2-fluoro-4-{3-fluoro-4-[2-(3-methoxypiperidin-1-yl)-2-oxoacetamido]-2-oxo-1,2-dihydropyridin-1-yl}butyl)-N-{[2-fluoro-5-(trifluoromethoxy)phenyl]methyl}-1H-1,2,3-triazole-4-carboxamide]	< 100 nM	100 to 500 nM
O=C(Nc1ccn(CCC(F)Cn2cc(C(=O)NCc3cc(OC(F)(F)F)ccc3F)nn2)c(=O)c1F)C(=O)N1CCC[C@@H](C(F)(F)F)C1 (stereo partly drawn) [Example 434, 1-[2-fluoro-4-(3-fluoro-2-oxo-4-{2-oxo-2-[(3R)-3-(trifluoromethyl)piperidin-1-yl]acetamido)-1,2-dihydropyridin-1-yl)butyl]-N-{[2-fluoro-5-(trifluoromethoxy)phenyl]methyl}-1H-1,2,3-triazole-4-carboxamide]	< 100 nM	< 100 nM
O=C(Cc1ccccc1)Nc1ccn(CCCCc2nnc(C(=O)NCc3cccc(OC(F)(F)F)c3)s2)c(=O)c1 [Example 438, 5-{4-[2-oxo-4-(2-phenylacetamido)-1,2-dihydropyridin-1-yl]butyl}-N-{[3-(trifluoromethoxy)phenyl]methyl}-1,3,4-thiadiazole-2-carboxamide]	< 100 nM	< 100 nM
O=C(Cc1cccc(OC(F)(F)F)c1)Nc1ccn(CCCCc2nnc(C(=O)NCc3cccc(OC(F)(F)F)c3)s2)c(=O)c1 [Example 439, 5-[4-(2-oxo-4-{2-[3-(trifluoromethoxy)phenyl]acetamido}-1,2-dihydropyridin-1-yl)butyl]-N-{[3-(trifluoromethoxy)phenyl]methyl}-1,3,4-thiadiazole-2-carboxamide]	< 100 nM	< 100 nM
O=C(CC1CCCCC1)Nc1ccn(CCCCc2nnc(C(=O)NCc3cccc(OC(F)(F)F)c3)s2)c(=O)c1 [Example 440, 5-{4-[4-(2-cyclohexylacetamido)-2-oxo-1,2-dihydropyridin-1-yl]butyl}-N-{[3-(trifluoromethoxy)phenyl]methyl]-1,3,4-thiadiazole-2-carboxamide]	< 100 nM	< 100 nM
Cc1ccc(CNC(=O)c2nnc(CCCCn3ccc(NC(=O)Cc4ccccc4)cc3=O)s2)cn1 [Example 441, N-[(6-methylpyridin-3-yl)methyl]-5-{4-[2-oxo-4-(2-phenylacetamido)-1,2-dihydropyridin-1-yl]butyl}-1,3,4-thiadiazole-2-carboxamide]	< 100 nM	500 to 5000 nM
Cc1ccc(CNC(=O)c2nnc(CCCCn3ccc(NC(=O)Cc4cccc(OC(F)(F)F)c4)cc3=O)s2)cn1 [Example 442, N-[(6-methylpyridin-3-yl)methyl]-5-[4-(2-oxo-4-{2-[3-(trifluoromethoxy)phenyl]acetamido}-1,2-dihydropyridin-1-yl)butyl]-1,3,4-thiadiazole-2-carboxamide]	< 100 nM	< 100 nM
Cc1ccc(CNC(=O)c2nnc(CCCCn3ccc(NC(=O)CC4CCCCC4)cc3=O)s2)cn1 [Example 443, 5-{4-[4-(2-cyclohexylacetamido)-2-oxo-1,2-dihydropyridin-1-yl]butyl}-N-[(6-methylpyridin-3-yl)methyl]-1,3,4-thiadiazole-2-carboxamide]	< 100 nM	< 100 nM
O=C(Cc1ccccc1)Nc1ccn(CCCCc2nnc(C(=O)NCc3ccccn3)s2)c(=O)c1 [Example 445, 5-{4-[2-oxo-4-(2-phenylacetamido)-1,2-dihydropyridin-1-yl]butyl}-N-(pyridin-2-ylmethyl)-1,3,4-thiadiazole-2-carboxamide]	100 to 500 nM	500 to 5000 nM
O=C(Cc1cccc(OC(F)(F)F)c1)Nc1ccn(CCCCc2nnc(C(=O)NCc3ccccn3)s2)c(=O)c1 [Example 446, 5-[4-(2-oxo-4-{2-[3-(trifluoromethoxy)phenyl]acetamido}-1,2-dihydropyridin-1-yl)butyl]-N-(pyridin-2-ylmethyl)-1,3,4-thiadiazole-2-carboxamide]	< 100 nM	100 to 500 nM
O=C(CC1CCCCC1)Nc1ccn(CCCCc2nnc(C(=O)NCc3ccccn3)s2)c(=O)c1 [Example 447, 5-{4-[4-(2-cyclohexylacetamido)-2-oxo-1,2-dihydropyridin-1-yl]butyl}-N-(pyridin-2-ylmethyl)-1,3,4-thiadiazole-2-carboxamide]	< 100 nM	< 100 nM
COCCNC(=O)c1nnc(CCCCn2ccc(NC(=O)Cc3cccc(OC(F)(F)F)c3)cc2=O)s1 [Example 450, N-(2-methoxyethyl)-5-[4-(2-oxo-4-{2-[3-(trifluoro-methoxy)phenyl]acetamido}-1,2-dihydropyridin-1-yl)butyl]-1,3,4-thiadiazole-2-carboxamide]	100 to 500 nM	500 to 5000 nM
COCCNC(=O)c1nnc(CCCCn2ccc(NC(=O)CC3CCCCC3)cc2=O)s1 [Example 451, 5-{4-[4-(2-cyclohexylacetamido)-2-oxo-1,2-dihydropyridin-1-yl]butyl)-N-(2-methoxyethyl)-1,3,4-thiadiazole-2-carboxamide]	< 100 nM	100 to 500 nM
O=C(Cc1ccccc1)Nc1ccn(CCCCc2nnc(C(=O)NCc3ncccc3F)s2)c(=O)c1 [Example 453, N-[(3-fluoropyridin-2-yl)methyl]-5-{4-[2-oxo-4-(2-phenylacetamido)-1,2-dihydropyridin-1-yl]butyl}-1,3,4-thiadiazole-2-carboxamide]	100 to 500 nM	500 to 5000 nM
O=C(Cc1cccc(OC(F)(F)F)c1)Nc1ccn(CCCCc2nnc(C(=O)NCc3ncccc3F)s2)c(=O)c1 [Example 454, N-[(3-fluoropyridin-2-yl)methyl]-5-[4-(2-oxo-4-{2-[3-(trifluoromethoxy)phenyl]acetamido}-1,2-dihydropyridin-1-yl)butyl]-1,3,4-thiadiazole-2-carboxamide]	< 100 nM	100 to 500 nM
O=C(CC1CCCCC1)Nc1ccn(CCCCc2nnc(C(=O)NCc3ncccc3F)s2)c(=O)c1 [Example 455, 5-{4-[4-(2-cyclohexylacetamido)-2-oxo-1,2-dihydropyridin-1-yl]butyl}-N-[(3-fluoropyridin-2-yl)methyl]-1,3,4-thiadiazole-2-carboxamide]	< 100 nM	< 100 nM
O=C(Cc1ccccn1)Nc1ccn(CCCCc2nnc(C(=O)NCc3cccc(OC(F)(F)F)c3)s2)c(=O)c1 [Example 456, 5-(4-{2-oxo-4-[2-(pyridin-2-yl)acetamido]-1,2-dihydropyridin-1-yl}butyl)-N-{[3-(trifluoromethoxy)phenyl]methyl}-1,3,4-thiadiazole-2-carboxamide]	< 100 nM	100 to 500 nM
O=C(Cc1ccccc1)Nc1ccn(CCCCc2nnc(C(=O)NCc3cc(OC(F)(F)F)ccc3F)s2)c(=O)c1 [Example 458, N-{[2-fluoro-5-(trifluoromethoxy)phenyl]methyl}-5-{4-[2-oxo-4-(2-phenylacetamido)-1,2-dihydropyridin-1-yl]butyl}-1,3,4-thiadiazole-2-carboxamide]	< 100 nM	< 100 nM
O=C(Cc1cccc(OC(F)(F)F)c1)Nc1ccn(CCCCc2nnc(C(=O)NCc3cc(OC(F)(F)F)ccc3F)s2)c(=O)c1 [Example 459, N-{[2-fluoro-5-(trifluoromethoxy)phenyl]methyl}-5-[4-(2-oxo-4-{2-[3-(trifluoromethoxy)phenyl]acetamido}-1,2-dihydropyridin-1-yl)butyl]-1,3,4-thiadiazole-2-carboxamide]	< 100 nM	< 100 nM
O=C(CC1CCCCC1)Nc1ccn(CCCCc2nnc(C(=O)NCc3cc(OC(F)(F)F)ccc3F)s2)c(=O)c1 [Example 460, 5-{4-[4-(2-cyclohexylacetamido)-2-oxo-1,2-dihydropyridin-1-yl]butyl}-N-{[2-fluoro-5-(trifluoromethoxy)phenyl]methyl}-1,3,4-thiadiazole-2-carboxamide]	< 100 nM	< 100 nM
O=C(Cc1ccccn1)Nc1ccn(CCCCc2nnc(C(=O)NCc3cc(OC(F)(F)F)ccc3F)s2)c(=O)c1 [Example 461, N-{[2-fluoro-5-(trifluoromethoxy)phenyl]methyl}-5-(4-{2-oxo-4-[2-(pyridin-2-yl)acetamido]-1,2-dihydropyridin-1-yl}butyl)-1,3,4-thiadiazole-2-carboxamide]	< 100 nM	500 to 5000 nM
